In patent publication US20070191292A1, “Antimycotic rhamnolipid compositions and related methods of use” (priority 2006, published 2007):
Like-named read-outs stand apart in the source and are kept apart here. Bridge positions count the residues as written; N and C are the ends. Square brackets hold non-standard residues; d marks the D form. Peptide text beside a SMILES is read from it. * marks the point of attachment. Asp(3S-OH) = N[C@H](C(=O)O)[C@H](O)C(=O)O; Thr(4-Cl) = N[C@H](C(=O)O)[C@H](O)CCl; X1 = CCCCCCCCC[C@@H](O)CC(=O)*; dDab = NCC[C@@H](N)C(=O)O; Dab = NCC[C@H](N)C(=O)O; Dhb = C/C=C(\N)C(=O)O

Experiments:
Aspergillus flavus = assay type: cell-based; conditions: SRE alone (0.5 mg/ml solution, diluted)
Description: (§1) The checkerboard method is used frequently to evaluate antimicrobial combinations in vitro (Lorian, V., M. D. 1996. Antibiotics in Laboratory Medicine, 4th ed.). The tests were easily performed at the laboratory level by using the microdilution method. The results obtained from this study provided a better understanding of the nature of the interaction between SRE and rhamnolipids.
(§2) The checkerboard method is described by Sabath et al. (Sabath, L. D. 1967. Synergy of antibacterial substances by apparently known mechanisms. Antimicrob. Agents Chemother. 7:210-7.) and Garrod et al. (Garrod L. P. and P. M. Waterworth. 1962. Methods of testing combined antibiotic bactericidal action and the significance of the results. J. Clin. Pathol. 15:328-38.). A 96-well plate was used to determine the fractional inhibitory concentrations (FICs). Serial twofold dilutions of SRE and rhamnolipids were prepared separately. Then 25 μl of different concentrations of syringomycin are added in a vertical orientation and the rhamnolipids were added in horizontal orientation. The final volume of the well contained 50 μl of the subject composition and 50 μl of the tested culture. The plate was incubated at 35° C. for 24-72 h. and the FICs were calculated using the equation: (A/MICa)+(B/MICb)=FICa+FICb=FIC index, where A and B are concentrations of SRE and rhamnolipids, MICa and MICb are the minimum inhibitory concentrations, and FICa and FICb are the fractional inhibitory concentrations of SRE and rhamnolipids, respectively.
(§3) SRE and Rh solutions were prepared, at the concentrations shown (mg/ml), then diluted and used to determine the minimum inhibitory concentration (MIC, μg/ml) of each, alone and in composition with the other (SYRA and SYRA2). […] Beneficial effects against the other organisms tested are evidenced by examination and analysis of the corresponding data.

Botrytis sp = assay type: cell-based; conditions: SRE alone (0.5 mg/ml solution, diluted)
Description: as §1, §2, §3

Candida albicans = assay type: cell-based; conditions: SRE alone (0.5 mg/ml solution, diluted)
Description: as §1, §2, §3

Cladosporium sp = assay type: cell-based; conditions: SRE alone (0.5 mg/ml solution, diluted)
Description: as §1, §2, §3

Fusarium oxysporum = assay type: cell-based; conditions: SRE alone (0.5 mg/ml solution, diluted)
Description: as §1, §2, §3

Penicillium sp1 = assay type: cell-based; conditions: SRE alone (0.5 mg/ml solution, diluted)
Description: as §1, §2, §3

Penicillium sp2 = assay type: cell-based; conditions: SRE alone (0.5 mg/ml solution, diluted)
Description: as §1, §2, §3

Rhizoctonia solani = assay type: cell-based; conditions: SRE alone (0.5 mg/ml solution, diluted)
Description: as §1, §2, §3

Rhizopus stonifer = assay type: cell-based; conditions: SRE alone (0.5 mg/ml solution, diluted)
Description: as §1, §2, §3

Rhodotorula pilimanae = assay type: cell-based; conditions: SRE alone (0.5 mg/ml solution, diluted)
Description: as §1, §2, §3

BY4741 = assay type: cell-based, Saccharomyces cerevisiae
Protocol: (§4) Disk diffusion methods similar to those described by the NCCLS protocols for antifungal testing (Washington, G. L. W. a. J. A. 1995. Antibacterial Susceptibility Tests: Dilution and Disk Diffusion Methods, p. 1327-1341. in P. R. Murray (ed.), Manual of Clinical Microbiology, sixth ed.) were used. FIGS. 2(A) through 2(D) illustrate typically observed result assessments for antimicrobial combinations using the disk diffusion method.
(§5) Tested fungi, utilized in the examples that follow, were grown in RPMI Medium and adjusted to 5×10^4 CFU/ml, and transferred onto solid agar medium of the appropriate growth medium. The cultures were spread over the surface as a thin film. Four millimeter-diameter sterilized paper disks were deposited on the surface and syringomycin E and rhamnolipids were applied on disk 1 and disk 2, respectively (in approximately about 7 to about 10 μl aliquots). The distance between the disks was equal to the sum of radii of zones of inhibition of the drugs applied alone. The plates were incubated at approximately 35° C. for approximately 24-72 h.
(§6) SYRA was obtained by mixing SRE and rhamnolipids at different relative concentrations. SYRA was tested against a variety of yeasts and fungi and the zone of inhibition was measured as described with reference to Examples 2A and 2B.

8A-1B = assay: Disk diffusion, zone of inhibition; assay type: cell-based, Saccharomyces cerevisiae
Protocol: as §4, §5

W303C = assay: Disk diffusion, zone of inhibition; assay type: cell-based, Saccharomyces cerevisiae
Protocol: as §4, §5

R.pilimanae = assay type: cell-based, Rhodotorula pilimanae
Protocol: as §4, §5, §6

[1] = tested on: Saccharomyces cerevisiae SRE resistant mutant strains Δsmr1,Δsyr2,Δipt1, Δelo2,Δelo3,Δfah1; assay: Replica plate growth inhibition, sphingolipid and sterol biosynthetic mutants; assay type: cell-based; conditions: parent strains 8A-1B, W303, BY4741
Description: To investigate the mechanism of action of SYRA, Saccharomyces cerevisiae sphingolipid and sterol biosynthetic mutants were used. Saccharomyces cerevisiae parent strains 8A-1B, W303, BY4741 and SRE resistant mutant strains Δsmr1,Δsyr2,Δipt1, Δelo2,Δelo3,Δfah1 were utilized, as described previously (Stock, S. D., H. Hama, J. A. Radding, D. A. Young, and J. Y. Takemoto. 2000. Syringomycin E inhibition of Saccharomyces cerevisiae: requirement for biosynthesis of sphingolipids with very-long-chain fatty acids and mannose- and phosphoinositol-containing head groups. Antimicrob. Agents Chemother. 44:1174-80.). For growth inhibition, a replica plate method was used (Hama, J., D. A. Young, J. A. Radding, D. Ma, J. Tang, S. D. Stock, and J. Y. Takemoto. 2000. Requirement of sphingolipid alpha-hydroxylation for fungicidal action of syringomycin E. FEBS Lett. 478:26-8). Fresh cells were replica plated onto yeast extract-peptone-dextrose (YPD) agar containing different concentrations of SYRA. Growth with and without SYRA addition were compared to determine relative sensitivity.

[2] = tested on: a variety of yeast and fungi; assay: Antifungal activities against a variety of yeast and fungi (Table 1); assay type: cell-based; conditions: component alone; Tables 1 and 2
Description: as §1
as §2, with “Then 25 μl of different concentrations of syringomycin are added in a vertical orientation and the rhamnolipids were added in horizontal orientation. The final volume of the well contained 50 μl of the subject composition and 50 μl of the tested culture.” left out, “respectively. […]” for “respectively.”

## C/C=C1\NC(=O)[C@H](Cc2ccccc2)NC(=O)[C@H](CCCNC(=N)N)NC(=O)[C@H](CCN)NC(=O)[C@@H](CCN)NC(=O)[C@@H](CO)NC(=O)[C@@H](NC(=O)C[C@H](O)CCCCCCCCC)COC(=O)[C@H]([C@H](O)CCl)NC(=O)[C@H]([C@H](O)C(=O)O)NC1=O [SRE, Syringomycin E] (X1-S[dS][dDab][Dab]RF[Dhb][Asp(3S-OH)][Thr(4-Cl)]; ester 1-C)
Aspergillus flavus
  MIC: 7.8 µg/mL
Botrytis sp
  MIC: 3.9 µg/mL
Candida albicans
  MIC: 3.9 µg/mL
Cladosporium sp
  MIC: 3.9 µg/mL
Fusarium oxysporum
  MIC: 7.8 µg/mL
Penicillium sp1
  MIC: 7.8 µg/mL
Penicillium sp2
  MIC: 7.8 µg/mL
Rhizoctonia solani
  MIC: 3.9 µg/mL
Rhizopus stonifer
  MIC: 7.8 µg/mL
Rhodotorula pilimanae
  MIC: 3.9 µg/mL
BY4741; SRE alone 2.4 mg/ml
  Zone of Inhibition: 19.0 mm
BY4741; SRE alone 5.6 mg/ml
  Zone of Inhibition: 21.0 mm
BY4741; SRE alone 10.3 mg/ml
  Zone of Inhibition: 23.0 mm
8A-1B; SRE alone 2.4 mg/ml
  Zone of Inhibition: 17.5 mm
8A-1B; SRE alone 5.6 mg/ml
  Zone of Inhibition: 19.0 mm
8A-1B; SRE alone 10.3 mg/ml
  Zone of Inhibition: 20.0 mm
W303C; SRE alone 2.4 mg/ml
  Zone of Inhibition: 26.0 mm
W303C; SRE alone 5.6 mg/ml
  Zone of Inhibition: 28.0 mm
W303C; SRE alone 10.3 mg/ml
  Zone of Inhibition: 29.0 mm
R.pilimanae; SRE alone 2.4 mg/ml
  Zone of Inhibition: 19.0 mm
R.pilimanae; SRE alone 5.6 mg/ml
  Zone of Inhibition: 21.5 mm
R.pilimanae; SRE alone 10.3 mg/ml
  Zone of Inhibition: 23.0 mm
[1]
  growth inhibitory activity in mutants compared to wild type: less in the mutants as compared to the wild type
[2]
  antifungal activities, alone: strong activity
